From US10870102B2, “Radical generating catalyst, method for producing radical, method for producing oxidation reaction product, drug, and drug for agriculture and livestock” (ACENET INC., priority 2015, dated 2020)
Several values for one entry are separate records, joined by “and”; a condition that tells them apart may be missing. Equal values may be shown once. Read-outs that look alike come from different tables or passages of the source.

What was measured:
[1] = Lewis acidity: rate constant of reaction between CoTPP and oxygen in the presence of a Lewis acid; assay type: physicochemical
Escherichia coli MV1184 = assay: MIC/MBC determination, microplate; assay type: cell-based; conditions: E. coli; 37° C., 24 hours
Staphylococcus aureus = assay: MIC/MBC determination, microplate; assay type: cell-based; conditions: S. aureus; 37° C., 24 hours

Compound | kcat [1] | MIC (Escherichia coli MV1184) | also measured
CC(C)(C)CC(C)(C)c1ccc(OCCOCC[N+](C)(C)Cc2ccccc2)cc1.[Cl-] [benzetonium chloride, benzethonium chloride] | 0.24 and 0.24 M^−2 s^−1 |  | 
CCCC[N+](CCCC)(CCCC)CCCC.F[P-](F)(F)(F)(F)F [tetrabutylammonium hexafluorophosphate] | >0.1 M^−2 s^−1 |  | 
benzalkonium chloride |  |  | kcat ([1]; rate constant of reaction between CoTPP and oxygen in the presence of a Lewis acid, MeCN, saturated O2, room temperature): 0.18 M^−2 s^−1
sodium chlorite [Comp. Ex. 7] |  | 25< ppm | 
sodium chlorite [compound 6] |  | 30 ppm | MBC (Escherichia coli MV1184): 50 ppm; MIC (Staphylococcus aureus): 40 ppm
